The text below walks through data of patent publication US20170305893A1 (Thomas Helledays Stiftelse for Medicinsk Forskning, priority 2014, published 2017).

pIC50: −log10 of the molar value.

The first assay deals with T1, DCTPP1 (Homo sapiens, UniProt Q9H773).
T1 sequence (Q9H773 1-170): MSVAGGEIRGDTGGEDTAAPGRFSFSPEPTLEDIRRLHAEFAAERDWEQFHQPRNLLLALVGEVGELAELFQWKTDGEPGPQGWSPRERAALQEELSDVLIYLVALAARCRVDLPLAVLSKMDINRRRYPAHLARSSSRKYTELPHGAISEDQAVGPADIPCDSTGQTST
The assay is described as follows: DCTPP1 inhibition assay (malachite green). Type of assay: biochemical. The note with it: 35 nM DCTPP1, 35 μM dCTP, 20 minutes at 22° C.; read-out: IC50. How it is done: DCTPP1 catalyzes the hydrolysis of dCTP to dCMP and PPi. By coupling the reaction to pyrophosphatase added in excess PPi is converted to Pi that can be detected by using the malachite green assay reagent. […] DCTPP1 diluted in assay buffer (100 mM Tris-acetate, 100 mM KCl, 10 mM magnesium acetate, 1 mM DTT and 0.005% Tween 20) fortified with E. coli pyrophosphatase (0.2 U/mL) is added to a final concentration of 35 nM. dCTP diluted in assay buffer is added to a final concentration of 35 μM. The reaction mixture is incubated with shaking for 20 minutes at 22° C. To 100 μl reaction mixture is added […] Malachite green assay reagent (0.095% Malachite green in 17% H2SO4, 1.5% Ammonium molybdate, 0.17% Tween 20) added followed by incubation with shaking for 15 minutes at 22° C. The absorbance of the assay plate is read at 630 nm using a SpectraMax plate reader (Molecular Devices).
Usually pIC50 stands for the negative decadic logarithm of the IC50, by convention in mol/L. In the case of `Cc1nc2c([N+](=O)[O-])c(Cl)c(Cl)cc2n1Cc1ccc(B2OC(C)(C)C(C)(C)O2)cc1` [Compound 2.2.49, 5,6-dichloro-2-methyl-4-nitro-1-(4-(4,4,5,5-tetramethyl-1,3,2-dioxaborolan-2-yl)benzyl)-1H-benzo[d]imidazole], the pIC50 is 7.52. Same read-out and setting: the value for `O=[N+]([O-])c1c(Cl)c(Cl)cc2c1nc(C1CC1)n2Cc1ccc(B(O)O)cc1` [Compound 2.2.45, (4-((5,6-dichloro-2-cyclopropyl-4-nitro-1H-benzo[d]imidazol-1-yl)methyl)phenyl)boronic acid] was 7.57.

Take `Cc1nc2c([N+](=O)[O-])c(F)c(F)cc2n1Cc1ccccc1` [Compound 2.2.10, 1-benzyl-5,6-difluoro-2-methyl-4-nitro-1H-benzo[d]imidazole]: the pIC50 is 6.39. With “5,6-dichloro-2-methyl-4-nitro-1-(4-(trifluoro-l4-boranyl)benzyl)-1H-benzo[d]imidazole [Compound 2.2.48]”, the pIC50 was 7.41. `COc1ccc(Cn2c(C(F)(F)F)nc3c([N+](=O)[O-])c(C)c(C)cc32)cc1` [Compound 2.2.58, 1-(4-methoxybenzyl)-5,6-dimethyl-4-nitro-2-(trifluoromethyl)-1H-benzo[d]imidazole]: the pIC50 is 7.85. Consider `Cc1nc2c([N+](=O)[O-])c(Cl)c(Cl)cc2n1Cc1ccc(B(O)O)cc1` [Compound 2.2.44, (4-((5,6-dichloro-2-methyl-4-nitro-1H-benzo[d]imidazol-1-yl)methyl)phenyl)boronic acid], for which the pIC50 was 7.33. In the case of `Cc1nc2c([N+](=O)[O-])c(Cl)c(Cl)cc2n1S(=O)(=O)c1ccccc1` [Compound 2.2.17, 5,6-dichloro-2-methyl-4-nitro-1-(phenylsulfonyl)-1H-benzo[d]imidazole], the pIC50 is 7.13.

For `Cc1nc2c([N+](=O)[O-])c(Cl)c(Cl)cc2n1Cc1ccc(B2OC(=O)CN(C)CC(=O)O2)cc1` [Compound 2.2.50, 2-(4-((5,6-dichloro-2-methyl-4-nitro-1H-benzo[d]imidazol-1-yl)methyl)phenyl)-6-methyl-1,3,6,2-dioxazaborocane-4,8-dione], the pIC50 is 7.36.

Staying with this assay, now noted: 35 nM DCTPP1, 35 μM dCTP, 20 minutes at 22° C.; read-out: IC50 (nM), class.
The term IC50 denotes the concentration at which inhibition is half-maximal. Take `COc1ccc(Cn2c(OC)nc3cccc([N+](=O)[O-])c32)cc1` [Compound 2.3.2, 2-methoxy-1-(4-methoxybenzyl)-7-nitro-1H-benzo[d]imidazole]: the IC50 is no less than 1000 nM.

In the case of `Cc1cc2c(nc(C)n2Cc2ccc(F)cc2)c([N+](=O)[O-])c1C` [Compound 2.2.56, 1-(4-fluorobenzyl)-2,5,6-trimethyl-4-nitro-1H-benzo[d]imidazole], the IC50 lay within 100 to 500 nM. On to `O=[N+]([O-])c1c(Cl)c(Cl)cc2c1nc(C1CC1)n2Cc1ccc(B(O)O)cc1` [Compound 2.2.45, (4-((5,6-dichloro-2-cyclopropyl-4-nitro-1H-benzo[d]imidazol-1-yl)methyl)phenyl)boronic acid], for which the IC50 was less than 100 nM.

Consider `COc1cc(Cn2c(C)nc3c([N+](=O)[O-])c(C)c(C)cc32)cc(OC)c1OC` [Compound 2.2.52, 2,5,6-trimethyl-4-nitro-1-(3,4,5-trimethoxybenzyl)-1H-benzo[d]imidazole], for which the half-inhibitory concentration (IC50) is no less than 1000 nM. For the compound `Cc1cc2c(nc(C)n2Cc2ccc(Cl)cc2)c([N+](=O)[O-])c1C` [Compound 2.2.55, 1-(4-chlorobenzyl)-2,5,6-trimethyl-4-nitro-1H-benzo[d]imidazole], the IC50 was less than 100 nM. For “5,6-dichloro-2-methyl-4-nitro-1-(4-(trifluoro-l4-boranyl)benzyl)-1H-benzo[d]imidazole [Compound 2.2.48]”, the IC50 is less than 100 nM.

`Cc1nc2c([N+](=O)[O-])c(Cl)c(Cl)cc2n1Cc1ccccc1` [Compound 2.2.19, 1-benzyl-5,6-dichloro-2-methyl-4-nitro-1H-benzo[d]imidazole]: the IC50 was less than 100 nM. On the same count and under the same terms, the value for `Cc1nc2c([N+](=O)[O-])c(Cl)c(Cl)cc2n1-c1ccccc1` [Compound 2.2.16, 5,6-dichloro-2-methyl-4-nitro-1-phenyl-1H-benzo[d]imidazole] was less than 100 nM. Consider `Cc1nc2c([N+](=O)[O-])c(Cl)c(Cl)cc2n1Cc1ccc(Cl)nc1` [Compound 2.2.43, 5,6-dichloro-1-((6-chloropyridin-3-yl)methyl)-2-methyl-4-nitro-1H-benzo[d]imidazole], for which the IC50 is 100 to 500 nM. With `Cc1cc2c(nc(C)n2Cc2ccc(OC(F)(F)F)cc2)c([N+](=O)[O-])c1C` [Compound 2.2.57, 2,5,6-trimethyl-4-nitro-1-(4-(trifluoromethoxy)benzyl)-1H-benzo[d]imidazole], the IC50 was in the range of 100 to 500 nM. On the same count and under the same terms, for `COc1ccc(Cn2c(C(F)(F)F)nc3c([N+](=O)[O-])cccc32)cc1` [Compound 2.2.4, 1-(4-methoxybenzyl)-4-nitro-2-(trifluoromethyl)-1H-benzo[d]imidazole] the value was no less than 1000 nM. The same measure, in the same setting: the value for `Cc1nc2c([N+](=O)[O-])c(Cl)c(Cl)cc2n1Cc1ccc(-n2cncn2)cc1` [Compound 2.2.35, 1-(4-(1H-1,2,4-triazol-1-yl)benzyl)-5,6-dichloro-2-methyl-4-nitro-1H-benzo[d]imidazole] was 500 to 1000 nM.

Regarding `Cc1nc2c([N+](=O)[O-])c(F)c(F)cc2n1Cc1ccc(-n2cncn2)cc1` [Compound 2.2.13, 1-(4-(1H-1,2,4-triazol-1-yl)benzyl)-5,6-difluoro-2-methyl-4-nitro-1H-benzo[d]imidazole], the IC50 is no less than 1000 nM.

Turning to `Cc1cc2c(nc(C)n2C(C)c2ccccc2)c([N+](=O)[O-])c1C` (stereo not drawn) [Compound 2.2.59, 2,5,6-trimethyl-4-nitro-1-(1-phenylethyl)-1H-benzo[d]imidazole], the IC50 lay in the range of 100 to 500 nM. Regarding `Cc1nc2c([N+](=O)[O-])c(Cl)c(Cl)cc2n1C(=O)c1ccccc1` [Compound 2.2.18, (5,6-dichloro-2-methyl-4-nitro-1H-benzo[d]imidazol-1-yl)(phenyl)methanone], the IC50 was in the range of 100 to 500 nM. Turning to `Cc1nc2c([N+](=O)[O-])c(F)c(F)cc2n1Cc1ccc(B(O)O)cc1` [Compound 2.2.15, (4-((5,6-difluoro-2-methyl-4-nitro-1H-benzo[d]imidazol-1-yl)methyl)phenyl)boronic acid], the IC50 was 500 to 1000 nM. Same read-out and setting: for `Cc1nc2c([N+](=O)[O-])c(Cl)c(Cl)cc2n1Cc1ccc(C=O)cc1` [Compound 2.2.27, 4-((5,6-dichloro-2-methyl-4-nitro-1H-benzo[d]imidazol-1-yl)methyl)benzaldehyde] the value was 100 to 500 nM; for `Cc1cc2c(nc(C(F)(F)F)n2Cc2ccc(B(O)O)cc2)c([N+](=O)[O-])c1C` [Compound 2.2.61, (4-((5,6-dimethyl-4-nitro-2-(trifluoromethyl)-1H-benzo[d]imidazol-1-yl)methyl)phenyl)boronic acid], less than 100 nM. The same measure, in the same setting: the value for `Cc1nc2c([N+](=O)[O-])c(Cl)c(Cl)cc2n1Cc1ccc(S(C)(=O)=O)cc1` [Compound 2.2.41, 5,6-dichloro-2-methyl-1-(4-(methylsulfonyl)benzyl)-4-nitro-1H-benzo[d]imidazole] was 100 to 500 nM; that for `C=CC(=O)c1ccc(Cn2c(C)nc3c([N+](=O)[O-])c(Cl)c(Cl)cc32)cc1` [Compound 2.2.30, 1-(4-((5,6-dichloro-2-methyl-4-nitro-1H-benzo[d]imidazol-1-yl)methyl)phenyl)prop-2-en-1-one] was less than 100 nM; that for `Cc1nc2c([N+](=O)[O-])c(Cl)c(Cl)cc2n1Cc1ccc(C=NO)cc1` [Compound 2.2.28, 4-((5,6-dichloro-2-methyl-4-nitro-1H-benzo[d]imidazol-1-yl)methyl)benzaldehyde oxime] was less than 100 nM.

With `COc1ccc(Cn2c(C(C)C)nc3c([N+](=O)[O-])cccc32)cc1` [Compound 2.2.7, 2-isopropyl-1-(4-methoxybenzyl)-4-nitro-1H-benzo[d]imidazole], the IC50 was no less than 1000 nM.

Consider `Cc1ccc(Cn2c(C)nc3c([N+](=O)[O-])c(Cl)c(Cl)cc32)cc1` [Compound 2.2.26, 5,6-dichloro-2-methyl-1-(4-methylbenzyl)-4-nitro-1H-benzo[d]imidazole], for which the IC50 is less than 100 nM.

As for `Cc1nc2c([N+](=O)[O-])c(Cl)c(Cl)cc2n1CCc1ccc(B(O)O)cc1` [Compound 2.2.51, (4-(2-(5,6-dichloro-2-methyl-4-nitro-1H-benzo[d]imidazol-1-yl)ethyl)phenyl)boronic acid], the IC50 is 100 to 500 nM. Regarding `Cc1nc2c([N+](=O)[O-])c(Cl)c(Cl)cc2n1S(=O)(=O)c1ccccc1` [Compound 2.2.17, 5,6-dichloro-2-methyl-4-nitro-1-(phenylsulfonyl)-1H-benzo[d]imidazole], the IC50 is less than 100 nM. For `Cc1nc2c([N+](=O)[O-])c(Cl)c(Cl)cc2n1Cc1cccc(B(O)O)c1` [Compound 2.2.47, (3-((5,6-dichloro-2-methyl-4-nitro-1H-benzo[d]imidazol-1-yl)methyl)phenyl)boronic acid], the IC50 is less than 100 nM. With `Cc1nc2c([N+](=O)[O-])c(Cl)c(Cl)cc2n1Cc1ccc(C(N)=O)cc1` [Compound 2.2.39, 4-((5,6-dichloro-2-methyl-4-nitro-1H-benzo[d]imidazol-1-yl)methyl)benzamide], the IC50 is less than 100 nM.

Take `CC1(C)CC(C)(C)c2c1cc1c(cnn1Cc1ccc(B(O)O)cc1)c2[N+](=O)[O-]` [Compound 2.2.64]: the IC50 was no less than 1000 nM. With `COc1ccc(Cn2c(OC)nc3c([N+](=O)[O-])cccc32)cc1` [Compound 2.2.5, 2-methoxy-1-(4-methoxybenzyl)-4-nitro-1H-benzo[d]imidazole], the IC50 was no less than 1000 nM. `COc1ccc(Cn2c(-c3ccccc3)nc3c([N+](=O)[O-])cccc32)cc1` [Compound 2.2.2, 1-(4-methoxybenzyl)-4-nitro-2-phenyl-1H-benzo[d]imidazole]: the IC50 is no less than 1000 nM. As to “1-(4-methoxybenzyl)-4-nitro-1H-benzo[d]imidazole [Compound 2.2.62]”, the IC50 was no less than 1000 nM.
